Data as given in ChEMBL document CHEMBL1201862, “PubChem BioAssay data set” (2004).
Structures can show the parent of a compound that is named as a salt. Calls of active or inactive are those of the source.

Tests used:
Escherichia coli [1] = assay: microbe, parasite or virus in culture
[2] = target: 5-hydroxytryptamine receptor 2A (Mus musculus, UniProt P35363); assay type: functional, cell-based;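 note: CHO-K1 cells with tagged receptor and beta-arrestin; agonist potency measured as compound-induced activation of the receptor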
Sequence of 5-hydroxytryptamine receptor 2A (P35363 whole entry): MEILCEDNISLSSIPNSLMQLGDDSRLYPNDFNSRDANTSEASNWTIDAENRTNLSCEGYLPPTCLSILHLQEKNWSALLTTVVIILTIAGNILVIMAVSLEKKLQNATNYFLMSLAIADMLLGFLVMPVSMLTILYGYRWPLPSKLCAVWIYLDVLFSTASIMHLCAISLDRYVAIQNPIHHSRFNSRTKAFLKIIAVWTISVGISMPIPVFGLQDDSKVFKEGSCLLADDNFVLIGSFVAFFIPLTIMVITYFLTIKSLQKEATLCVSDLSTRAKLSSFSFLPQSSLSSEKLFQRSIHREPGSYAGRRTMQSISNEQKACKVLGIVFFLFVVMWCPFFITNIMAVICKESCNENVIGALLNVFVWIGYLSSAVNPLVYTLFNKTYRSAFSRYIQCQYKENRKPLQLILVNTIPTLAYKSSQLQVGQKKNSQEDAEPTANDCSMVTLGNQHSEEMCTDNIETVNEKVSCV

Escherichia coli [3] = assay: microbe, parasite or virus in culture; remark: listed apart in the source
Mu-type opioid receptor [4] = target: T1, Mu-type opioid receptor (Homo sapiens, UniProt P35372); assay type: functional, cell-based
T1 sequence (P35372 whole entry): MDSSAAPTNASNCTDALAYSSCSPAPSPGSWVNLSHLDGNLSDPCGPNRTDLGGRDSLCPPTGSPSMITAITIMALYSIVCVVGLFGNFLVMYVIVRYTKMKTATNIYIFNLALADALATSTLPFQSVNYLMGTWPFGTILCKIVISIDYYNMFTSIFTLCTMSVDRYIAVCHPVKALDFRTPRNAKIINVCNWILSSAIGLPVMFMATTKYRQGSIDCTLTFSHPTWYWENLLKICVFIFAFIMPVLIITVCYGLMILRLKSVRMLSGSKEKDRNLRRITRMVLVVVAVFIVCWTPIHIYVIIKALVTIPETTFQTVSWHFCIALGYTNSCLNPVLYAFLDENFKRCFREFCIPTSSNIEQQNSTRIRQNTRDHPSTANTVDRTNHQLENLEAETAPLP

Mu-type opioid receptor [5] = target: T1, Mu-type opioid receptor; assay: SAR Analysis of Agonists of the MOR Receptor using an Image-Based Assay - Set 3. [Related pubchem assays (depositor defined):AID1777, AID1785, AID1786, AID1966, AID2133, AID2136, AID2284, AID2285, AID2352]; assay type: functional
[6] = target: T2, Kappa-type opioid receptor (Homo sapiens, UniProt P41145); assay: KOR agonist analogs, arrestin-GFP redistribution, SAR follow-up, imaging, image-based, set 3 (AID 488833); assay type: functional
T2 sequence (P41145 whole entry): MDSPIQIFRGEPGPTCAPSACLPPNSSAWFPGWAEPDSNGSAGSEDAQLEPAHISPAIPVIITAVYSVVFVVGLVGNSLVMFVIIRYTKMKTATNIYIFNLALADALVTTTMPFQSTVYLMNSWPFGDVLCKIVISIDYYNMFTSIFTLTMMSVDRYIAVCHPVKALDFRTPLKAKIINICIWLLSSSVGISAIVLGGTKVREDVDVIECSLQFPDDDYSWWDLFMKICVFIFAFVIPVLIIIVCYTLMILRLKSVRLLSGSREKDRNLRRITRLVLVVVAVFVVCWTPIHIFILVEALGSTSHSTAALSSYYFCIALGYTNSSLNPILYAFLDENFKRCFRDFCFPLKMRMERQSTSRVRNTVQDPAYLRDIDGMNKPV

[7] = target: T2, Kappa-type opioid receptor; assay: SAR analysis of small molecule agonists of the kappa opioid receptor via a luminescent beta-arrestin assay - Set 3. [Related pubchem assays (depositor defined):AID1777, AID1785, AID1786, AID1966, AID2133, AID2136, AID2284, AID2500]; assay type: functional
[8] = target: Delta-type opioid receptor (Homo sapiens, UniProt P41143); assay: SAR Analysis of Agonists of the DOR Receptor using an Image-Based Assay - Set 3. [Related pubchem assays (depositor defined):AID1777, AID1786]; assay type: functional
Sequence of Delta-type opioid receptor (P41143 whole entry): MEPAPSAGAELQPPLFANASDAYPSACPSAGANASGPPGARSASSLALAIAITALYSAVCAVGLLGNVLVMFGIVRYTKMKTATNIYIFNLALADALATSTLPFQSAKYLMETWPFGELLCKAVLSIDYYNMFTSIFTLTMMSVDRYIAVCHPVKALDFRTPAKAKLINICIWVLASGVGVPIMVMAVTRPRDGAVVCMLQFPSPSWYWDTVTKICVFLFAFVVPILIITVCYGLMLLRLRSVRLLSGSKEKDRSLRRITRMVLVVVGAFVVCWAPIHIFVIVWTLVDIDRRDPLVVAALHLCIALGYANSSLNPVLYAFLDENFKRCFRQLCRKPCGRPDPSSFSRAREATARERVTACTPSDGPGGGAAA

[9] = target: Peroxisome proliferator-activated receptor gamma/Nuclear receptor coactivator 3 (Homo sapiens, UniProt P37231); assay: (§1) TR-FRET dose response biochemical High Throughput Screening assay for agonists of the steroid receptor coactivator 3 (SRC-3) recruitment by the peroxisome proliferator-activated receptor gamma (PPAR gamma): non-selective agonists. [Related pubchem assays: 1301 (Confirmation screen.), 1048 (Primary screen.)]; assay type: functional
[10] = target: Peroxisome proliferator-activated receptor gamma/Nuclear receptor coactivator 1 (Homo sapiens, UniProt P37231); assay: as §1, with “1 (SRC-1)” for “3 (SRC-3)”, “assays (depositor defined):AID1300, AID1808, AID504735, AID631]” for “assays: 1301 (Confirmation screen.), 1048 (Primary screen.)]”; assay type: protein assay
[11] = target: Peroxisome proliferator-activated receptor gamma/Nuclear receptor coactivator 2 (Homo sapiens, UniProt P37231); assay: TR-FRET dose response biochemical High Throughput Screening assay for agonists of the steroid receptor coactivator 2 (SRC-2) recruitment by the peroxisome proliferator-activated receptor gamma (PPAR gamma): non-selective agonists. [Related pubchem assays: 1297, 1032 ]; assay type: functional
Sequence of Peroxisome proliferator-activated receptor gamma/Nuclear receptor coactivator 2 (P37231 whole entry): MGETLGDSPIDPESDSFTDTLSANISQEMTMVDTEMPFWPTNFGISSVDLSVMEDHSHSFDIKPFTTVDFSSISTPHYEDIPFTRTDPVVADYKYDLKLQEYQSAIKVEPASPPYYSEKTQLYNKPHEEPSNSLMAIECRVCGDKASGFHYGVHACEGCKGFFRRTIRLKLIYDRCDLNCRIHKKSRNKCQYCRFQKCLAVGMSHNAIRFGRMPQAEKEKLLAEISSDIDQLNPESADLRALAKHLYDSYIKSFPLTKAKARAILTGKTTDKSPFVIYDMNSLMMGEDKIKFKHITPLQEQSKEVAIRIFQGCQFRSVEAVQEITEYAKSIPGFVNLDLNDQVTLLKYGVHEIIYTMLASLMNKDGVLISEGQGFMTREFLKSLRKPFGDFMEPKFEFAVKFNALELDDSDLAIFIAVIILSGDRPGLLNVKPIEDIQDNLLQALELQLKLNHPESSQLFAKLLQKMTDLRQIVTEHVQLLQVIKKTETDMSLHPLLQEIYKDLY
Sequence of Peroxisome proliferator-activated receptor gamma/Nuclear receptor coactivator 2 (Q15596 whole entry, further chain): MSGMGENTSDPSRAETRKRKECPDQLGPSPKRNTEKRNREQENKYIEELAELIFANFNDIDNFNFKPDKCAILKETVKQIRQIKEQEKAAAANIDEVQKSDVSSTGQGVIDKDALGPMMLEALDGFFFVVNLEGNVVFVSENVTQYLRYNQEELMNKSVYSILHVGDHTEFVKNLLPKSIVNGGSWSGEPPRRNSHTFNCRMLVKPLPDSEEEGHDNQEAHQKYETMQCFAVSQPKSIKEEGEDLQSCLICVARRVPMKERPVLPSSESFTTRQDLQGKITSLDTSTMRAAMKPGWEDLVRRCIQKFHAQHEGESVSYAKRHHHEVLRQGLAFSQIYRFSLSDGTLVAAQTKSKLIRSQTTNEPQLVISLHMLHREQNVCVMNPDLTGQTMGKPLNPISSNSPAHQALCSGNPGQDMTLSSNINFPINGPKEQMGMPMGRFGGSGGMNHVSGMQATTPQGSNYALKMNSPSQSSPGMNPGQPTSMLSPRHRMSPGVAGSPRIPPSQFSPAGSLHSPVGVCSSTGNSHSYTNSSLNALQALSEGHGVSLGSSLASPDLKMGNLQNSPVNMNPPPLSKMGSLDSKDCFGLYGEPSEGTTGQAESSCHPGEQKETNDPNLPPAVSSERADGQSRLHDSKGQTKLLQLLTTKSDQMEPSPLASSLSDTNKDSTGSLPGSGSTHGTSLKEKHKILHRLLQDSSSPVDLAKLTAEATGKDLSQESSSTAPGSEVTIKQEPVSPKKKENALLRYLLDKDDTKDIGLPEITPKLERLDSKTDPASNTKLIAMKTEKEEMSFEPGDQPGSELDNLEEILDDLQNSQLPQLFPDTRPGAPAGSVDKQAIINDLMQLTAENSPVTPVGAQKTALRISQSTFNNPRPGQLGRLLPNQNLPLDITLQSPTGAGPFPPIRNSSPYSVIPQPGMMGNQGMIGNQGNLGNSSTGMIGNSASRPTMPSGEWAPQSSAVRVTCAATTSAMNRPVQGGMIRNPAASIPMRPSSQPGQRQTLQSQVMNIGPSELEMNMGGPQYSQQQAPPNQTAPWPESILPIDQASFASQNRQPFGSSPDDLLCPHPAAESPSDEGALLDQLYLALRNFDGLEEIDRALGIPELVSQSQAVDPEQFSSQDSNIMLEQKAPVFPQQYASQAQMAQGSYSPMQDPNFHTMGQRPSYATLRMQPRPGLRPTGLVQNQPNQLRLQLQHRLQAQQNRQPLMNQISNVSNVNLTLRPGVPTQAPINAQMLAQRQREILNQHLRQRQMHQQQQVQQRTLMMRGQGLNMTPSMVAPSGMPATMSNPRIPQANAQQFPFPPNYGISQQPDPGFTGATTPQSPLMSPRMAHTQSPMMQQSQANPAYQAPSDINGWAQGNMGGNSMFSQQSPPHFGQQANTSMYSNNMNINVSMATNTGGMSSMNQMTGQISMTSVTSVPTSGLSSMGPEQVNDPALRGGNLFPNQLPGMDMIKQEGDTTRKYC

[12] = Luminescence Cell-Based Dose Retest to Confirm Inhibitors of Cancer Stem Cells. [Related pubchem assays (depositor defined):AID2717, AID2721]; assay type: functional, Homo sapiens; conditions: Homo sapiens
Nonstructural protein 1 = Nonstructural protein 1 (Influenza A virus, UniProt Q194T2); assay type: functional, Influenza A virus (A/California/07/2009(H1N1))
Sequence of Nonstructural protein 1 (Q194T2 whole entry): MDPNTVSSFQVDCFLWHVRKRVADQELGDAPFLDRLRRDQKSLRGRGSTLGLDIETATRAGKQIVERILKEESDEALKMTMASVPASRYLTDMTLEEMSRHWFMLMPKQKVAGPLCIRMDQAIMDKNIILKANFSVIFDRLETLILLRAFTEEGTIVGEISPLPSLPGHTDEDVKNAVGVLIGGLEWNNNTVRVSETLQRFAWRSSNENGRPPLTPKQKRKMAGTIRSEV

[13] = cytotoxicity in HMLE control line with eGFP shRNA, dose response, counter-screen for HMLE_sh_ECad selective toxicity project, cell-based, HMLE_sh_eGFP, luminescence (AID 463074); assay type: functional, Homo sapiens;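 note: HMLE human mammary epithelial cells expressing control shRNA against eGFP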
[14] = AlphaScreen signal interference compounds, dose response, artefact control for ARNT-TACC3 interaction inhibitor project, biochemical, luminescence, cherry-pick (AID 651705); assay type: functional;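 note: AlphaScreen bead proximity signal that flags compounds interfering with the detection technology; potency reflects signal decrease which marks the compound as an assay artifact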
[15] = target: T3, Rac GTPase-activating protein 1 (Homo sapiens, UniProt Q9H0H5); assay: MgcRacGAP GTPase-activating activity inhibitors, confirmation, biochemical, ADP Hunter fluorescence, primary and confirmatory (AID 624330); assay type: functional
T3 sequence (Q9H0H5 whole entry): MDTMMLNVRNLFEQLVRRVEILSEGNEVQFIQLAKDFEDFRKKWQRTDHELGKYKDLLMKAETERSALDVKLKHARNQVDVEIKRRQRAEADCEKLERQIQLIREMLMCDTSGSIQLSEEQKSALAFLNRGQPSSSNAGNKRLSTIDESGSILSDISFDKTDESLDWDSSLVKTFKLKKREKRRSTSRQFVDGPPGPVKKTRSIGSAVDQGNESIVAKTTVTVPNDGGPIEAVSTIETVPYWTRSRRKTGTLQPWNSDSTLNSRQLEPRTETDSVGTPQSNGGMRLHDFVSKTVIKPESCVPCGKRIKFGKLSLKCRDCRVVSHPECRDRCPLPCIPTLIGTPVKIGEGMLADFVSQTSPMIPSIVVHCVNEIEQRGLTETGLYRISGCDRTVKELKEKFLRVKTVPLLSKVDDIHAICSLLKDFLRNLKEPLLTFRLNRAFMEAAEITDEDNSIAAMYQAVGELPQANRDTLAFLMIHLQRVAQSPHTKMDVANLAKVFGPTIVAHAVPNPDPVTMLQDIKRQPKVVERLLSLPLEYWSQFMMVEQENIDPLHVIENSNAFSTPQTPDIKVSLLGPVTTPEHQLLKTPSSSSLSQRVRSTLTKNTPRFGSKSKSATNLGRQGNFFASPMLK

[16] = target: T4, DNA repair protein RAD52 homolog (Homo sapiens, UniProt P43351); assay type: functional, biochemical
T4 sequence (P43351 whole entry): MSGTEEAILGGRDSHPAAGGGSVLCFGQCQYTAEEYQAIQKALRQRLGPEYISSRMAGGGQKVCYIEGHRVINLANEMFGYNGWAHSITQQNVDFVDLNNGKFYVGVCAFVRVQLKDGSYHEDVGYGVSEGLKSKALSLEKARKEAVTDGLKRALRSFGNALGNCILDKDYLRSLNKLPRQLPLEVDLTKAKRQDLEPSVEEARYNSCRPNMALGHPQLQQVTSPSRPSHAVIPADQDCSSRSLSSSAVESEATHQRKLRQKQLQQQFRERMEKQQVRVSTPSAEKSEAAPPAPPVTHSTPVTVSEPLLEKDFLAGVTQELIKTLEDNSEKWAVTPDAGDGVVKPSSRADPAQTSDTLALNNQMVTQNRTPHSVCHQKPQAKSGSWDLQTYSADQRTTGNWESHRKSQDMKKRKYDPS

[17] = target: T5, Ubiquitin-conjugating enzyme E2 N (Homo sapiens, UniProt P61088); assay type: functional
T5 sequence (P61088 whole entry): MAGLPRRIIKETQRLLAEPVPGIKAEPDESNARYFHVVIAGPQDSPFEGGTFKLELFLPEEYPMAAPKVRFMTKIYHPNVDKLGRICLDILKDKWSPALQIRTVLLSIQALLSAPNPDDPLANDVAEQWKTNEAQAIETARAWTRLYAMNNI

Bcl-2-related protein A1 = Bcl-2-related protein A1 (Mus musculus, UniProt Q07440); assay type: functional;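 note: confirmatory dose–response counterscreen on Bfl-1, used to check hits from a UBC13 polyubiquitin inhibitor campaign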
Sequence of Bcl-2-related protein A1 (Q07440 whole entry): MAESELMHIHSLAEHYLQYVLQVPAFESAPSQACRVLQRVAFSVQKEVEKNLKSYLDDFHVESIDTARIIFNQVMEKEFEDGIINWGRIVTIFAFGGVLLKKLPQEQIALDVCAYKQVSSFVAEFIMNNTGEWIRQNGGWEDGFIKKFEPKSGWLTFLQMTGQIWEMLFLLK

For `CN(C)[C@@H]1C(O)=C(C(N)=O)C(=O)[C@@]2(O)C(O)=C3C(=O)c4c(O)ccc(Cl)c4[C@@H](O)[C@H]3C[C@@H]12` [DEMECLOCYCLINE HYDROCHLORIDE], the AC50 (Escherichia coli [1]) was 36 µM (active), the EC50 [2] was 13.7 µM (inactive) and the AC50 (Escherichia coli [3]) was 0.866 µM (active). For the same compound, the EC50 (Mu-type opioid receptor [4]) was 92.5 µM (inactive).
For `Fc1ccc(CSc2nnc(-c3ccccn3)n2Cc2ccco2)c(C(F)(F)F)c1`, the EC50 (Mu-type opioid receptor [5]) was > 32 µM (inactive), the EC50 [6] was 5.39 µM (active) and the EC50 [7] was 8.27 µM (active). For the same compound, the EC50 [8] was > 64 µM (inactive).
For `C[C@H](NS(=O)(=O)c1ccc(Cl)c(Cl)c1)C(=O)OCc1cc(=O)n2cc(Br)ccc2n1`, the AC50 (Escherichia coli [3]) was 67.4 µM (active).
For `Cn1c(=O)cc(SCC(=O)N2CCCC2)c2ccc(Cl)cc21`, the EC50 [9] was > 79.4 µM (not active), the EC50 [10] was > 79.4 µM (inactive) and the EC50 [11] was > 79.4 µM (not active).
In the case of `O=C(Cn1cnc([N+](=O)[O-])n1)N/N=C/c1ccc(O)cc1O`, the AC50 [12] is reported as 19.3 µM (active), the IC50 (Nonstructural protein 1) is reported as 10.9 µM (active) and the AC50 [13] is reported as 20.8 µM (active). The AC50 [14] was 102 µM (active) and the IC50 [15] was 107 µM (active).
In the case of `C[C@]12CC[C@H](O)C[C@@H]1CC[C@@H]1[C@@H]2CC[C@]2(C)[C@@H](OC(=O)[C@H](N)CCCCN)CC[C@@H]12`, the AC50 [16] is reported as 1.27 µM (active), the IC50 [17] is reported as 11.8 µM (active) and the IC50 (Bcl-2-related protein A1) is reported as > 20 µM (inactive).
